The values that follow come from article PMC4043666, “Mass Spectrometry Based Identification of Geometric Isomers during Metabolic Stability Study of a New Cytotoxic Sulfonamide Derivatives Supported by Quantitative Structure-Retention Relationships” (PLoS ONE, 2014).

Data set [1] is described as follows: RP-LC determination of chromatographic lipophilicity log kw (DryLab). It counts as physicochemical. The following applies: Poroshell EC18 column, 30°C, acetonitrile 5-100% gradients of 30 and 60 min, calculated with DryLab. The method, then: (2) In order to obtain input lipophilicity data, reversed-phase liquid chromatography (RP-LC) log kw determination experiments were performed using the Agilent 1260 apparatus (Agilent Technologies, Santa Clara, CA, USA) equipped with UV and single quadrupole mass detectors, and an autosampler and column thermostat. A Poroshell EC18 150×3 mm column with a particle size of 2.7 µm was applied. Chromatographic measurements were made at 30°C with an eluent flow rate of 0.25 mL/min. Two chromatographic runs were conducted for each compound with different linear gradient times (30 and 60 min), and with an acetonitrile composition in the mobile phase increasing from 5% to 100%. The obtained retention times were further used to calculate log kw values applying the DryLab 2000 Plus software (LC Resources, Walnut Creek, CA, USA). DryLab estimated the log kw value according to the linear equation: log k = logkw+Sφ (k – retention factor, S – slope, φ – volume fraction of the organic modifier) The elution program, as well as the column, mobile phase and instrument properties were taken into account to determine the coefficients in the abovementioned equation. Two analytical runs were required to fit the data, and peak assignment was done manually to ensure the correct identification.

The nature of data set [2]: In vitro metabolic stability in human liver microsomes (LC-MS). It counts as in vitro ADME. The following applies: for % of compound remaining after 120 min incubation: HLM 0.53 mg/mL, 1 mM NADPH, compound 10 µM, phosphate buffer pH 7.4, 37°C, percentage of peak area of trans isomer at start of incubation. The procedure:
Stock solutions of the studied compounds were made at a concentration of 1 mM in DMSO:MeOH mixture (10∶90 v/v) to prevent their precipitation. For biotransformation incubations, the solution of compounds was diluted to 10 µM with the presence of 1 mM of NADPH (Sigma-Aldrich, St. Louis, MO, USA) in a potassium phosphate buffer (0.1 M, pH 7.4). Incubation was carried out in thermoblock (Labnet International, Edison, NJ, USA) at 37°C and started with the addition of pooled human liver microsomes with a final concentration of 0.53 mg/mL (Sigma-Aldrich, St. Louis, MO, USA). Directly after HLM was added and at 120 min of incubation the reaction was ended by the addition of an equal volume of ice-cold methanol with 0.1% (v/v) of formic acid. The samples were immediately centrifuged (10 min at 11700 g) and the resulting supernatant was directly analyzed or kept at −80°C until LC-MS or LC-QTOF-MS analysis.
(§1) LC-MS analysis was performed on an Agilent 1260 system coupled to a SingleQuad 6120 mass spectrometer (Agilent Technologies, Santa Clara, CA, USA). The amount of remaining parent compound was determined as a percentage of a peak area of a trans isomer at the start of the incubation.
(§2) A Poroshell C18 EC120 column (3.0×100 mm, 2.7 µm, Agilent Technologies, Santa Clara, CA, USA) was used in reversed-phase mode with gradient elution starting with 5% of phase A (0.1% formic acid in water) and 95% of phase B (0.1% formic acid in acetonitrile). […] The total analysis time was 42 min at 25°C, the flow rate was 0.25 mL/min and the injection volume was 20 µL. The mass spectrometer was equipped with an electrospray ionization source and the ionization mode was positive. The mass analyzer was set individually to each derivative to detect pseudomolecular ions [M+H^+]. The mass spectrometry detector parameters of the ESI source were as follows: nebulizer pressure 40 psi (N2), drying gas […] (N2), drying gas temperature 300°C, capillary voltage +3 kV.

Data set [3] is described as follows: Chemical stability / cis-trans isomerization in solution (LC-MS). The note with it: for % of isomerization at the beginning of incubation: biotransformation incubation samples, start of incubation. The data set is classed as physicochemical. The procedure: Additionally, chemical stability (negative control) in biotransformation experiment conditions was performed (phosphate buffer, 37°C, 2 h) to evaluate possible instability, unrelated to the activity of microsomes (including putative isomerization).
as §1, §2

In the case of `CC/C(=N/Nc1ccc([N+](=O)[O-])cc1)Sc1cc(Cl)c(C)cc1S(N)(=O)=O` [1-cis], in data set [1], the logkw was 3.52.
On the same count and under the same terms, then `CC/C(=N\Nc1ccc([N+](=O)[O-])cc1)Sc1cc(Cl)c(C)cc1S(N)(=O)=O` [1-trans], with 3.60.
In the case of `CCC(=NNc1ccc([N+](=O)[O-])cc1)Sc1cc(Cl)c(C)cc1S(N)(=O)=O` [Compound 1], the “% of compound remaining after 120 min incubation” value (“% of compound remaining” below) in data set [2] stood at 53.51%. Besides, the “% of isomerization at the beginning of incubation” value (shortened to “% of isomerization”) in data set [3] was determined as 5.84%.
For the molecule `CCC/C(=N\Nc1ccc([N+](=O)[O-])cc1)Sc1cc(Cl)c(C)cc1S(N)(=O)=O` [Compound 2], the “% of compound remaining” value in data set [2] worked out at 75.13%. Moreover, in data set [3], the “% of isomerization” value is reported as 6.52%.
For `Cc1cc(S(N)(=O)=O)c(S/C(=N/Nc2ccc([N+](=O)[O-])cc2)C(C)C)cc1Cl` [Compound 3] the same measures were 76.13% and 7.76%.
As to `Cc1cc(S(N)(=O)=O)c(S/C(=N/Nc2ccc([N+](=O)[O-])cc2[N+](=O)[O-])C(C)C)cc1Cl` [Compound 4], the “% of compound remaining” value in data set [2] is 62.86%. Besides, in data set [3], the “% of isomerization” value was 0.00%. For the same molecule, the “cis-trans isomerization in the studied conditions” value in data set [3] (water solution / incubation conditions) is “did not occur”.
Regarding `Cc1cc(S(N)(=O)=O)c(S/C(CC(C)C)=N/Nc2ccc([N+](=O)[O-])cc2)cc1Cl` [Compound 5], the “% of compound remaining” value in data set [2] turned out to be 79.95%. Besides, the “% of isomerization” value in data set [3] is on record as 5.84%.
For `Cc1cc(S(N)(=O)=O)c(S/C(=N/Nc2ccc([N+](=O)[O-])cc2)C(C)(C)C)cc1Cl` [Compound 6] the same measures were 83.88% and 3.50%.
Taken in the same sequence, the figures for `CCCCC/C(=N\Nc1ccc([N+](=O)[O-])cc1)Sc1cc(Cl)c(C)cc1S(N)(=O)=O` [Compound 7] were 60.90% and 5.53%.
Regarding `Cc1cc(S(N)(=O)=O)c(S/C(CCc2ccccc2)=N/Nc2ccc([N+](=O)[O-])cc2)cc1Cl` [Compound 8], the “% of compound remaining” value in data set [2] was 58.23%. In data set [3], the “% of isomerization” value is recorded as 5.25%.
For the molecule `Cc1cc(S(N)(=O)=O)c(S/C(=N/Nc2ccc([N+](=O)[O-])cc2)c2ccccc2)cc1Cl` [Compound 9], the “% of compound remaining” value in data set [2] was 96.03%. Further, in data set [3], the “% of isomerization” value is listed as 9.28%.
Consider `Cc1cc(S(N)(=O)=O)c(S/C(=N/Nc2ccc([N+](=O)[O-])cc2)c2ccc(Cl)cc2)cc1Cl` [Compound 10], for which the “% of compound remaining” value in data set [2] was found to be 90.80%. In addition, the “% of isomerization” value in data set [3] worked out at 7.79%.
For `Cc1cc(S(N)(=O)=O)c(S/C(=N/Nc2ccc([N+](=O)[O-])cc2)c2ccc([N+](=O)[O-])cc2)cc1Cl` [Compound 11], the “% of compound remaining” value in data set [2] amounted to 98.97%. The “% of isomerization” value in data set [3] is 1.50%.
Taken in the same sequence, the figures for `Cc1ccc(/C(=N\Nc2ccc([N+](=O)[O-])cc2)Sc2cc(Cl)c(C)cc2S(N)(=O)=O)cc1` [Compound 12] were 95.11% and 5.41%.
Taken in the same sequence, the figures for `COc1ccc(/C(=N\Nc2ccc([N+](=O)[O-])cc2)Sc2cc(Cl)c(C)cc2S(N)(=O)=O)cc1` [Compound 13] were 95.33% and 2.66%.
Take `Cc1cc(S(N)(=O)=O)c(SC(=NNc2ccc([N+](=O)[O-])cc2)c2ccc(O)c(Br)c2)cc1Cl` [Compound 14]: the “% of compound remaining” value in data set [2] is 74.88%. Moreover, the biotransformation reactions observed result in data set [2] (HLM with NADPH, LC-MS/MS) is “reductive debromination reaction”.
As for `Cc1cc(S(N)(=O)=O)c(S/C(=N/Nc2ccc([N+](=O)[O-])cc2)c2ccc3ccccc3c2)cc1Cl` [Compound 15], in data set [2], the “% of compound remaining” value stood at 99.40%. In addition, the “% of isomerization” value in data set [3] turned out to be 4.93%.
